Patent US20230277630A1, “METHODS AND COMPOSITIONS FOR TREATING AMYOTROPHIC LATERAL SCLEROSIS” (Amylyx Pharmaceuticals, Inc., priority 2022, published 2023)
Where “and” joins values, the source holds several entries; their conditions need not be identical. Identical values can stand only once.

Experiments:
OAT3 = biological target: T1, OAT3 (Homo sapiens, UniProt Q8TCC7)
T1 sequence (Q8TCC7 1-542): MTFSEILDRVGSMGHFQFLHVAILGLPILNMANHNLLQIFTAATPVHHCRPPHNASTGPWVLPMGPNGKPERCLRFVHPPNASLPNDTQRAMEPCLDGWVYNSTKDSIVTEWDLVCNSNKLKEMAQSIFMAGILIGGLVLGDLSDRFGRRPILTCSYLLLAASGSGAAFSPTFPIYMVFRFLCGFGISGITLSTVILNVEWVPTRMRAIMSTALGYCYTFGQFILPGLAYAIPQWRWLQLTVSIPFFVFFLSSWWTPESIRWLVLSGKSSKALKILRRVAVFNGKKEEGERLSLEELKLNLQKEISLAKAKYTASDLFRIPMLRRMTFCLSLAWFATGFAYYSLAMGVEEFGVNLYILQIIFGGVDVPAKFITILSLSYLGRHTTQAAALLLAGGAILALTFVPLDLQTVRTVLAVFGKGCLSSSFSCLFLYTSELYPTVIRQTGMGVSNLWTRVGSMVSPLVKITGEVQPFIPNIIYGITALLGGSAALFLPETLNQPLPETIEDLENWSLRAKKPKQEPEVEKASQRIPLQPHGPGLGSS

OATP1B3 = biological target: T2, OATP1B3 (Homo sapiens, UniProt Q9NPD5)
T2 sequence (Q9NPD5 1-702): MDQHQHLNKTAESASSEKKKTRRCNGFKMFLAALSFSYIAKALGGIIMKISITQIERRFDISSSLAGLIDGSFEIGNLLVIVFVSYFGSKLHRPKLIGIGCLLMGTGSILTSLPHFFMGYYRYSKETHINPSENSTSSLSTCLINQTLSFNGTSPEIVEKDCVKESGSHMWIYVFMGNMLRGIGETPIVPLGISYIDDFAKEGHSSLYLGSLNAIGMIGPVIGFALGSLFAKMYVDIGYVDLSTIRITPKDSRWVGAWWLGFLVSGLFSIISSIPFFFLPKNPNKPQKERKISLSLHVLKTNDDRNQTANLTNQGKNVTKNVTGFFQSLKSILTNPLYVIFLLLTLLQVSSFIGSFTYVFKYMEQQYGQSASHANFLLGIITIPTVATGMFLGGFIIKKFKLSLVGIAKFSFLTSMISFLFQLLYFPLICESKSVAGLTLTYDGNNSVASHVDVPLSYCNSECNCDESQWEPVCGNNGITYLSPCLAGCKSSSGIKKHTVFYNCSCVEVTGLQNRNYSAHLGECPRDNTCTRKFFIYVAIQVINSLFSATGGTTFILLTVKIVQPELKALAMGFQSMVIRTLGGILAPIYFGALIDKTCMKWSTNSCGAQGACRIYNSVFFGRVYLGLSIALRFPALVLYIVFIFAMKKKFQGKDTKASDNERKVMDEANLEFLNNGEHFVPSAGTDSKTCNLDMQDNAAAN

MATE1 = biological target: T3, MATE1 (Homo sapiens, UniProt Q96FL8)
T3 sequence (Q96FL8 1-570): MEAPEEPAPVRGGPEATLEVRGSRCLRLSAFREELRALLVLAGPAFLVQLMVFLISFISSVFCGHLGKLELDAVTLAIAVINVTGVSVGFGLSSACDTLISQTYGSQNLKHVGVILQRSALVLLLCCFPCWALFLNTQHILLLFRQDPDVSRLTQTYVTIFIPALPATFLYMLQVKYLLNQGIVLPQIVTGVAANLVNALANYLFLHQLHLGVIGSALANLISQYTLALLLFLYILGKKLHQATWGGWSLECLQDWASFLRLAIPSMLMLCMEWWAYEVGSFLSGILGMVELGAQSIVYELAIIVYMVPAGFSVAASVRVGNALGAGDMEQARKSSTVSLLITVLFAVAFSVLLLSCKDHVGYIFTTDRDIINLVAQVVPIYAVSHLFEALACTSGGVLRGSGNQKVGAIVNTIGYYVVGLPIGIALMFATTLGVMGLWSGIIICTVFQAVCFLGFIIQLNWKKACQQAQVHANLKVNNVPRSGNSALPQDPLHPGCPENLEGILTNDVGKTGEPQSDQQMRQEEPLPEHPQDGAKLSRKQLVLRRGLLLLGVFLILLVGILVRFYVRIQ

OCT2 = biological target: T4, OCT2 (Homo sapiens, UniProt O15244)
T4 sequence (O15244 1-555): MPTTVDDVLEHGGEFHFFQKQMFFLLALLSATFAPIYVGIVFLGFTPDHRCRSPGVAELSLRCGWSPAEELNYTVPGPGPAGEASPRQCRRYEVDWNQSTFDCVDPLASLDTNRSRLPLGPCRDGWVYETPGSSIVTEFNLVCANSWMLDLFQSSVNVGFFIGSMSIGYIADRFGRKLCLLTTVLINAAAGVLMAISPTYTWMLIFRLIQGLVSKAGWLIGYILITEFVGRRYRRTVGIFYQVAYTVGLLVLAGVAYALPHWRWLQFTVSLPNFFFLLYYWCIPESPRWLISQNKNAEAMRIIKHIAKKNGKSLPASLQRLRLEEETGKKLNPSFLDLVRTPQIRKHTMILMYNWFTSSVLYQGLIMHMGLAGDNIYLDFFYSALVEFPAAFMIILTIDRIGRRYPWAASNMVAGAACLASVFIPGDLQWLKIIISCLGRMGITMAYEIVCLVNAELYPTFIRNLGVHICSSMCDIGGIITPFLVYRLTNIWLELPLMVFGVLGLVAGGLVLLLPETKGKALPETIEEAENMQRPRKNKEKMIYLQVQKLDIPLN

Structure (SMILES)	IC50 (OAT3)	IC50 (OATP1B3) [mM]	IC50 (MATE1) [mM]	IC50 (OCT2) [mM]
O=C(O)CCCc1ccccc1 [PB, sodium phenylbutyrate]	4930 to 14800 µM	3.63 to 10.9	24.6 to 73.9	> 14.8
C[C@H](CCC(=O)NCCS(=O)(=O)O)[C@H]1CC[C@H]2[C@@H]3[C@@H](O)C[C@@H]4C[C@H](O)CC[C@]4(C)[C@H]3CC[C@]12C [TUDCA, tauroursodeoxycholic acid]	54 to 162 µM and 5.4 to 162 µM	0.0387 to 0.116	0.27 to 0.81	> 0.162
